From US20100173900A1, “Strobilurins for Increasing the Resistance of Plants to Abiotic Stress” (BASF SE, priority 2008, published 2010)

What was measured:
[1] = test system: canola plants; assay: Canola behavior under freeze conditions (dead plants); format: in vivo, canola (oilseed rape); details: seed treatment 10 g a.s./100 kg seed, 1 h at −10° C. in BBCH growth stage 10, counted three days after freeze exposure
Protocol: Canola (oilseed rape) seeds were treated either with pyraclostrobin (10 g of active substance per 100 kg seed) or with trifloxystrobin (10 g of active substance per 100 kg seed). The treatment was effected by means of a HEGE 11 seed treatment apparatus. After the treatment, the seeds were sown into pots. When the canola plants were in the BBCH growth stage 10, they were exposed for 1 h to −10° C. Three days after the freeze exposure, the number of dead plants was counted. The results are compiled as mean percentage values (relative to 100% of living plants before exposure to freezing temperatures) in table 9 below.

[2] = test system: cotton plants; assay: Cotton behavior under freeze conditions (dead plants); format: in vivo; details: 4 h at −5° C. in BBCH growth stage 10, counted three days after freeze exposure
Protocol: Cotton seeds were treated either with pyraclostrobin (20 g of active substance per 100 kg seed) or with azoxystrobin (19 g of active substance per 100 kg seed). The treatment was effected by means of a HEGE 11 seed treatment apparatus. After the treatment, the seeds were sown into pots. When the cotton plants were in the BBCH growth stage 10, they were exposed for 4 h to −5° C. Three days after the freeze exposure, the number of dead plants was counted. The results are compiled as mean percentage values (relative to 100% of living plants before exposure to freezing temperatures) in table 8 below.

[3] = test system: corn plants; assay: Corn behavior under freeze conditions (dead plants); format: in vivo; details: seed treatment 5 g a.s./100 kg seed, 3 h at −5 ° C. ten or eleven days after sowing, counted one day after freeze exposure
Protocol: Exposure times and temperatures were selected to show sufficient damage to the plants so that treatment differences could be observed.
Corn seeds were treated with pyraclostrobin (5 g of active substance per 100 kg seed) or with azoxystrobin (5 g of active substance per 100 kg seed). The treatment was effected by means of a HEGE 11 seed treatment apparatus. One day after the treatment, the seeds were sown into pots with sandy loam soil. One part of the corn plants was exposed for 3 h to −5 ° C. ten days after sowing, and the other plants eleven days after sowing. In each case, the number of dead plants was counted one day after the freeze exposure. The results are compiled as mean percentage values (relative to 100% of living plants before exposure to freezing temperatures) in table 3 below.

[4] = test system: sugar beet plants; assay: Emergence behavior of sugar beet at cold temperature; format: in vivo; details: seed treatment 30 g a.s./100 kg seed, kept at 10° C.
Protocol: The emergence behavior of sugar beet plants the seeds of which had been treated with pyraclostrobin and which were exposed after sowing to cold temperatures was studied following the guidelines for germination testing according to the Association of Official Seed Analysts (AOSA, 2005). For this purpose, sugar beet seeds were treated with pyraclostrobin (30 g active substance per 100 kg seed). The treatment was effected by means of a HEGE 11 seed treatment apparatus. After the treatment, the seeds were sown into pots with a sandy loam soil/sand mixture (2:1 v/v; 2 seeds per pot). The pots were placed in an incubator and kept at 10° C. 13, 15, 16, 17 and 20 days after sowing (=DAP=days after planting), the number of seeds which had given rise to plants was counted. The results are compiled as mean values in table 4. A value of 100% means that all sown seeds have given rise to plants.

[5] = test system: spring wheat plants; assay: Spring wheat behavior under freeze conditions (dead plants); format: in vivo; details: seed treatment 5 g a.s./100 kg seed, 2 h at −10° C. in BBCH growth stage 11, counted three days after freeze exposure
Protocol: (§1) Spring wheat seeds were treated with pyraclostrobin (5 g of active substance per 100 kg seed). The treatment was effected by means of a HEGE 11 seed treatment apparatus. After the treatment, the seeds were sown into pots. When the spring wheat plants were in the BBCH growth stage 11, they were exposed for 2 h to −10° C. Three days after the freeze exposure, the number of dead plants was counted. The results are compiled as mean percentage values (relative to 100% of living plants before exposure to freezing temperatures) in table 7 below.

[6] = test system: corn plants; assay: Corn field trial under frost conditions, Beaver Crossing; format: in vivo; details: 5 g a.s./100 kg seed in addition to Maxim XL and Apron XL
Protocol: For avoiding fungal stress which could give misleading test results especially under cold temperature, all corn seeds were treated with Maxim XL (fludioxonil; 3.5 g of active substance per 100 kg seed) and Apron XL (mefenoxam; 1 g of active substance per 100 kg seed). A part of the seeds was additionally treated with pyraclostrobin (5 g of active substance per 100 kg seed). The treatment was effected by means of a HEGE 11 seed treatment apparatus. The seeds were sown every 5 days starting from Sep. 6, 2007 in 1.75″ deep on clean tilled soil in Beaver Crossing, NE, USA. Frost occurred on Oct. 22/23, 2007 (−0.1° C. for 1 h), Oct. 23/24 (−0.1° C. for 1 h), 2007 and Oct. 24/25, 2007 (0° C. for 1 h, −1.1° C. for 1.5 h and 0° C. for 1 h). 47 days after sowing (=DAP; days after planting), the number emerged plants and their height was assessed. 50 DAP, the extent of dead tissue was assessed. The results are compiled as mean values in table 11 below.

[7] = test system: corn plants; assay: Emergence behavior of corn after seed treatment, cold and variable temperatures; format: in vivo; details: seed treatment 5 g a.s./100 kg seed, 7 days at 10° C., 4 days at 24° C., then 10° C.
Protocol: (§2) The emergence behavior of corn plants the seeds of which had been treated with pyraclostrobin and which were exposed after sowing to cold and variable temperatures was studied following the guidelines for germination testing according to the Association of Official Seed Analysts (AOSA, 2005). For this purpose, corn seeds were treated with pyraclostrobin (5 g active substance per 100 kg seed). The treatment was effected by means of a HEGE 11 seed treatment apparatus. After the treatment, the seeds were sown into sand trays (2×100 seeds per tray). The sand trays were placed in an incubator and submitted to following temperature regimen: 7 days at 10° C.-4 days at 24° C.-then 10 ° C. 9, 10 and 29 days after sowing (=DAP=days after planting), the number of seeds which had given rise to plants was counted. The results are compiled as mean values in table 1. A value of 100% means that all sown seeds have given rise to plants.

[8] = test system: corn plants; assay: Corn field trial, Burrus Seed Farms; format: in vivo; details: 5 g a.s./100 kg seed in addition to Maxim XL and Apron XL, 35 DAP
Protocol: For avoiding fungal stress which could give misleading test results especially under cold temperature, all corn seeds were treated with Maxim XL (fludioxonil; 3.5 g of active substance per 100 kg seed) and Apron XL (mefenoxam; 1 g of active substance per 100 kg seed). A part of the seeds was additionally treated with pyraclostrobin (5 g of active substance per 100 kg seed). The treatment was effected by means of a HEGE 11 seed treatment apparatus. On Sep. 26, 2007, the seeds were sown in Burrus Seed Farms, Illinois, USA. 35 days after sowing (=DAP; days after planting), the number of intact, injured and dead plants was assessed. The results are compiled as mean percentage values (relative to total number of plants=100%) in table 10 below.

[9] = test system: sugar beet plants; assay: Sugar beet behavior under freeze conditions (dead plants); format: in vivo; details: seed treatment 30 g a.s./100 kg seed
Protocol: Sugar beet seeds were treated with pyraclostrobin (30 g of active substance per 100 kg seed). The treatment was effected by means of a HEGE 11 seed treatment apparatus. After the treatment, the seeds were sown into pots with a sandy loam soil/sand mixture (2:1 v/v; 2 seeds per pot). One part of the sugar beet plants was exposed for 3 h to −5° C. when they were in the BBCH growth stage 10, and the other plants when they were in the BBCH growth stage 11. In each case, the number of dead plants was counted three days after the freeze exposure. The results are compiled as mean percentage values (relative to 100% of living plants before exposure to freezing temperatures) in table 5 below.

[10] = test system: corn plants; assay: Plant height (stem length) and root length of corn, cold and variable temperatures; format: in vivo; details: seed treatment 5 g a.s./100 kg seed, cold/variable temperature regimen of example 1, 23 days after sowing
Protocol: as §2
23 days after sowing (see example 1) the stem length (=length from the soil line to the meristem) and the root length of the plants was measured. The results are compiled as mean values in table 2 below.

[11] = test system: soybean plants; assay: Soybean behavior under freeze conditions (dead plants); format: in vivo; details: seed treatment 5 g a.s./100 kg seed, 3.5 h at −7° C. in BBCH growth stage 9, counted three days after freeze exposure
Protocol: as §1, with “Soybean” for “Spring wheat”, “soybean” for “spring wheat”, “9,” for “11,”, “3.5” for “2”, “−7°” for “−10°”, “6” for “7”

## CON=C(C(=O)OC)c1ccccc1CON=C(C)c1cccc(C(F)(F)F)c1 [trifloxystrobin]
[1]
  Dead plants: 42%

## CO/C=C(/C(=O)OC)c1ccccc1Oc1cc(Oc2ccccc2C#N)ncn1 [azoxystrobin]
[2]; seed treatment 19 g a.s./100 kg seed
  Dead plants: 24%
[3]
  Dead plants: 31%

## COC(=O)N(OC)c1ccccc1COc1ccn(-c2ccc(Cl)cc2)n1 [pyraclostrobin]
[4]; 13 DAP
  Emergence: 23%
[4]; 15 DAP
  Emergence: 45%
[4]; 16 DAP
  Emergence: 57%
[4]; 17 DAP
  Emergence: 73%
[4]; 20 DAP
  Emergence: 90%
[1]
  Dead plants: 40%
[5]
  Dead plants: 18%
[6]; 47 DAP
  No. of plants emerged: 19
  Plant height: 1.25 inches
[6]; 50 DAP
  Dead tissue: 63%
[7]; 9 DAP
  Emergence: 81%
[7]; 10 DAP
  Emergence: 97%
[7]; 29 DAP
  Emergence: 100%
[8]
  Dead plants: 29%
  Plants with injury: 35%
  Plants with no injury: 34%
[2]; seed treatment 20 g a.s./100 kg seed
  Dead plants: 17%
[9]; 3 h at −5° C. in BBCH growth stage 10, counted three days after freeze exposure
  Dead plants: 12%
[9]; 3 h at −5° C. in BBCH growth stage 11, counted three days after freeze exposure
  Dead plants: 17%
[10]
  Root length: 13.3 cm
  Stem length: 11.2 cm
[3]
  Dead plants: 36%
[11]
  Dead plants: 18%
